Entries after “also recorded” stand apart in the source; their conditions may differ.
Key:
[1] = system: Beas2b human airway epithelial cells; experiment: TNFα-induced ROS production (DCF assay) in beas2b cells; format: cell-based; settings: TNFα 10 ng/mL, 24 hr
Description: Beas2b human airway epithelial cells were grown to 70% confluency. Cells were treated with TNFα (10 ng/mL) or an equal volume of nuclease-free water in the presence of 0, 0.25, 2.5, or 25 nM of UNC0642. Cell lysates were collected in 1×PBS after 24 hr and freeze-thawed twice to lyse the cells completely. In vitro ROS was measured using OxiSelect In Vitro ROS/RNS Assay Kit with DCF standard. ROS (nM) was calculated from the standard curve and values were normalized by total amount of protein (as measured by Bradford assay). Values are expressed as mean+/−SEM (average of two experimental replicates).

H3K9me2 in HPMECs = experiment: H3K9me2 Western blot in LPS-treated HPMECs; format: cell-based, human; settings: LPS 1 ug/ml +/- UNC0642 2.5 nM, 24 hours
[2] = system: VE cadherin in HUVEC cells; experiment: Immunostaining of VE cadherin in HUVEC cells; format: cell-based, human; settings: LPS 1 μg/ml + UNC0642 2.5 nM, 24 hours
Description: HUVEC cells were seeded onto Lab-Tek II Chamber slide system at 1×10^6 cells/ml and grown to confluency. At 80-95% confluency they were treated with either the vehicle, LPS (1 μg/ml), LPS (1 μg/ml)+UNC0642 (2.5 nM) or UNC0642 (2.5 nM) for 24 hours. Then the following steps for immunostaining were performed • 1. Fixed the cells in 4% formaldehyde in warm PBS for 20 minutes at room temperature • 2. Aspirated the fixative • 3. Washed 3 times in PBS, 5 minutes each • 4. Blocked in blocking buffer for 2 hours at room temperature • 5. Aspirated the blocking buffer • 6. Added primary antibody VE cadherin (monoclonal VE Cad; cell signalling 2500S) at a dilution of 1:200 and incubated overnight at 4° C. • 7. Washed 3 times in PBS, 10 minutes each • 8. Added secondary antibody (goat anti-rabbit IgG Alexa Fluor 568; 1:1000 and Alexa Fluor 488 phalloidin; 1:1,000) and incubated for 2 hours at room temperature. • 9. Washed the cells 3 times in PBS, 10 minutes each at room temperature and mounted with a cover slip in 4′,6-diamidino-2-phenylindole (DAPI) Vectashield.
Images were taken with a Zeiss™ confocal microscope. […] (FIG. 10)

[3] = system: LPS induced zebrafish sepsis model; experiment: Survival in LPS induced zebrafish sepsis model; format: in vivo; settings: 24 h
Description: (§1) An LPS induced zebrafish sepsis model which mimics the hallmarks of human sepsis was developed (Philip et al., 2017). Zebrafish show varied susceptibility and responsiveness to LPS from different bacterial strains. Exposure of zebrafish larvae at 3 days post-fertilization (dpf) to two types of LPS (LPS from Escherichia coli 0111:B4 (Sigma) at 100 μg/ml for 5-6 hrs; or LPS from Salmonella at 27 μg/ml for 24 hrs) were both effective in inducing tail fin swelling, increased ROS production, increased vascular leakage and increased mortality.
Survival analyses for zebrafish (wildtype) exposed to various concentrations of LPS (Escherichia coli 0111:B4; Sigma) was performed. 3 dpf larvae were exposed to LPS by immersion technique. Larvae were treated with 10, 25, 50, 125, 250, 500, 1000, 2500, 5000 or 10000 nM UNC0642 along with 100 μg/ml LPS (LPS was dissolved in eggwater), by static immersion at 28.5° C. for 24 h in a total volume of 2 mL per treatment. Control larvae were exposed to egg water. Survival numbers were recorded and EC50s calculated.
3 dpf larvae were exposed to LPS by immersion technique. […] Control larvae were exposed to egg water. Survival numbers were recorded and EC50s calculated. The percentage (%) of embryos showing vascular leakage was also recorded and 1050s calculated.

[4] = system: LPS-induced tailfin edema; experiment: Tailfin edema in LPS-treated zebrafish larvae; format: in vivo
Description: as §1

[5] = system: CLP-induced protein exudation into the alveolar space; experiment: Mouse CLP model, protein leakage into BALF; format: in vivo; settings: intravenous infusion of 1 mg/kg
Description: The CLP model is a well established clinically relevant model for human sepsis (Smeding et al., 2012; Amatullah et al., 2016). Male 8-12 week old C57/B16 mice (Jackson lab) were randomized to CLP or sham surgeries. In anesthetised mice, the cecum was exteriorized, ligated, and perforated. Control animals were exposed to sham surgery, in which the cecum was manipulated, but not ligated or punctured. After surgery, animals received daily fluid resuscitation (subcutaneous (s.c.) 50 ml/kg saline), antibiotic (intraperitoneal (i.p.) imipenem 25 mg/kg) and pain management (s.c. buprenorphine 0.2 mg/kg). Experiments were divided into 2 groups: (1) to assess 7-day survival, and (2) to identify a mechanism of action of a G9a inhibitor in vivo. All experimental mice were randomized and investigators were blinded to group assignment.
Assessment of protective effects of UNC0642 on sepsis-induced vascular leakage: lung injury score and loss of alveolar-capillary membrane integrity with increased albumin and IgM exudation into bronchoalveolar lavage fluid (BALF) was assessed at 24 hrs post treatment.

[6] = system: LPS-induced ROS production; experiment: ROS production (DCFH-DA) in LPS-treated zebrafish larvae; format: in vivo; settings: LPS 100 μg/ml + 1 μM UNC0642, 5 h
Description: ROS production was visualised using 2′, 7′-dichlorodihydrofluorescein diacetate (DCFH-DA; Sigma-Aldrich), a ROS indicator. Wildtype zebrafish were exposed to Vehicle, LPS (100 μg/ml) or LPS+1 μM UNC0642 by static immersion for 5 h at 28.5° C. and then incubated along with 100 μM DCFH-DA for 1 h at 28.5° C. in the dark, and washed three times (5 min each) with embryo water. DCFH-DA diffuses into cells and is deacetylated by cellular esterases to non-fluorescent 2′, 7′-Dichlorodihydrofluorescin (DCFH), which is rapidly oxidized to highly fluorescent 2′, 7′-Dichlorofluorescein (DCF) by ROS. The fluorescence intensity is propor-tional to the ROS levels within the cell cytosol. Photographs were acquired using a Leica DFC 300-FX camera and a Leica fluorescence microscope, and were processed with Fiji analysis software. Corrected total fluorescence (CTF) was calculated using the following formula: CTF=Integrated density−(Area of selected cell×Mean fluorescence of background readings) H3K9me2 Immunofluorescence Analysis

In the case of COc1cc2c(NC3CCN(C(C)C)CC3)nc(N3CCC(F)(F)CC3)nc2cc1OCCCN1CCCC1 [UNC0642, 2-(4,4-Difluoropiperidin-1-yl)-6-methoxy-N-[1-(propan-2-yl)piperidin-4-yl]-7-(3-(pyrrolidin-1-yl)propoxy]quinazolin-4-amine], the “TNFα-induced increased ROS production” value [1] is reported as “significantly lowered”, the “H3K9me2 by Western Blot” value (H3K9me2 in HPMECs) is reported as “decreased H3K9me2; also recorded: reduction in this H3K9me2” and the “LPS-caused decrease in level and patterning of VE cadherin” value [2] is reported as “partially rescued”. The EC50 ([3]; Escherichia coli, in Danio rerio, read-out: EC50 for improved survival of septic zebrafish larvae) was 0.789 µM, the “Rescue of sepsis-associated mortality” value ([3]; comparison of UNC0642 and A366, zebrafish larvae, 27 μg/ml LPS) was “able to rescue” and the LPS-induced tailfin edema [4] was “significantly reduced”. For the same molecule, the “Protein exudation into the alveolar space (total alveolar protein in the BALF)” value [5] was “reduced protein exudation” and the “Reduction of LPS-induced ROS production” value [6] was 40%.

— patent US11998549B2, “Methods of treating a vascular leakage-associated disease or disorder” (UNITY HEALTH TORONTO, priority 2019, dated 2024)
